Consider two substances from patent publication US8252843B2, “Compounds for the treatment of AIDS and other viral diseases” (Novaremed Limited, priority 2004, dated 2012).

The test system of data set [1] is PBMC cells. As to the kind of experiment: Toxicity against PBMC cells by Alamar Blue reagent. As to conditions: 24 h and 48 h incubation. (Alamar Blue is a resazurin reagent that responds to reducing activity.)
Protocol: Human PBMC cells were obtained from a blood bank and plated out on a standard 96-well plate at a concentration of 10^5 cells/well. PHA (10 μg/ml) and AV 61S (or AV 74S) at different dilutions in DMSO of 100 μg/ml, 50 μg/ml, 25 μg/ml, 10 μg/ml and 1 μg/ml were added simultaneously to each well. The cells were incubated for 24 hours.
After 24 hours, Alamar Blue reagent was added up to 10% of the total well volume.
The controls were medium only and CsA (1 mg/1 ml EtOH).
The contents of each well were then assayed 1 hour, 3 hours and 6 hours after addition of Alamar Blue by fluorescence in the manner known to those skilled in the art to determine the viability of the PBMCs.
Data set [2] has as its system PHA-activated PBMCs. As to the kind of experiment: Example 10: [3H]-thymidine proliferation of PHA-activated PBMCs, compound diluted in DMSO. Format: cell-based, human. As to conditions: for inhibition relative to the controls: DMSO 0.25%; for inhibitory effect on PBMCs (summary of Examples 9 and 10): 100 and 50 μg/ml (61S), 100, 50 and 25 (74S). The method, then:
(§1) Human PBMCs were prepared from a blood bank and plated out at a concentration of 10^5 cells per well in a standard 96-well plate. PHA was added to each well at a concentration of 10 μg/ml together with AV 61S or PPG-7 (both in PBS) at concentrations of 50 μg/ml, 1 μg/ml, 100 ng/ml, 1 ng/ml and 100 pg/ml respectively for AV 61S and 50 μg/ml, 1 μg/ml and 10 ng/ml for PPG-7. The cells were then incubated for 7 days. [3H]-thymidine (NET-027 Thymidine [methyl-3H] from NEN 6.7 Ci/mmol Batch 3106446) was added to each well 48 hours after plating at a concentration of 1 mCi/well; a second dose was added to each well 18 hours before the end of the experiment. The cells were then harvested and counted for 1 min./sample.
Example 9 was repeated using separately compounds AV 61S, AV 61R and AV 74S and AV 74R. In each case the test compound was diluted in DMSO to a final concentration of 0.25%. A single dose of [3H]-thymidine (NET-027 Thymidine [methyl-3H] from NEN 6.7 Ci/mmol Batch 3106446) was added to each well 18 hours before the end of the experiment.

Data set [3] relates to PHA-activated PBMCs. Kind of data set: Example 9: [3H]-thymidine proliferation of PHA-activated PBMCs, compound in PBS. The data set is classed as cell-based, human. As to conditions: 50 μg/ml, 7 days, PHA 10 μg/ml. On the procedure:
as §1
The controls were medium alone and CsA (1 mg in 1 ml ethanol).

Regarding “(S) 2-N (3-O-(polypropyleneglycol)-1-propyl-4-hydroxybenzene)-3-phenylpropylamide [AV 74S]”, the “toxicity (Alamar Blue dyeing)” value in data set [1] (100 μg/ml) is “same activity and toxicity pattern as Cyclosporine (CsA)”; in data set [1] (all concentrations 1-100 μg/ml except AV 74S at 100 μg/ml), “non-toxic effect”. Moreover, the “inhibition relative to the controls” value in data set [2] (50 μg/ml) is 81%; in data set [2] (100 μg/ml) it was 100%. Further, in data set [2], the “inhibitory effect on PBMCs (summary of Examples 9 and 10)” value is recorded as “inhibitory effect”.
In the case of “(S) 2-N (3-O-polypropyleneglycol)propylbenzene)-3-(4-hydroxyphenyl)propylamide [AV 61S]”, the “inhibition relative to the controls” value is 60% in data set [3], “about 49%” in data set [2] (50 μg/ml) and “about 97%” in data set [2] (100 μg/ml). In addition, the “inhibitory effect on PBMCs (summary of Examples 9 and 10)” value in data set [2] was “inhibitory effect”.
